According to patent US20100329971A1, “NOVEL HYDROXY RADICAL GENERATION METHOD, AND ANTI-VIRAL MATERIAL UTILIZING HYDROXYL RADICAL GENERATED BY THE METHOD” (MOCHIGASE CO., LTD., priority 2008, published 2010):
Marks after values point to notes of the source that are not given here.

How the values were obtained:
[1] = Amount of generated hydroxyl radicals under shaded condition or room light, HPF reagent (Example 14); conditions: measured 1 hour after preparation
[2] = Amount of generated hydroxyl radicals using metal oxides and hydroxides, HPF reagent (Example 15); conditions: left shaded for 1 hour; 100% = 0.1% titanium oxide irradiated with room light 30 minutes
[3] = Duration of hydroxyl radical generation, HPF reagent (Example 16); conditions: shaded, 100% = 0.1% titanium oxide irradiated with room light 30 minutes
[4] = Amount of generated hydroxyl radicals using combinations of calcium hydroxide, magnesium oxide and magnesium hydroxide (Example 17); conditions: left shaded for 72 hours; total 1% by weight; only calcium hydroxide = 100%
Description: Specifically, each reagent was mixed as described below to prepare a specimen to be measured using a suspension of a metal oxide and/or a hydroxide in a manner similar to Example 15. HPF reagent (Daiichi Pure Chemicals Co., Ltd.): 0.1 μL 0.5 M phosphoric acid buffer (pH 7.0): 20 μL Pure water: 49.9 μL Each suspension: 30 μL Table 7 indicates the concentrations and amounts of metal oxide and/or hydroxide in each specimen to be measured. [table]

[5] = Quantification of hydroxyl radical production by HPF fluorescence intensity (Examples 13 and 18); conditions: HPF 5 μM, room temperature 15 minutes; for Amount of generated radicals: 0.1 M phosphoric acid buffer, fluorescence intensity
spike proteins = spike proteins (Severe acute respiratory syndrome coronavirus, UniProt P59594)
[6] = Shaded, 100% = 0.1% titanium oxide irradiated 30 minutes

Compound | Amount of generated hydroxyl radicals (% of control) [2] | Amount of generated hydroxyl radicals (% of control) After 1 hour [3] | Amount of generated hydroxyl radicals (% of control) After 12 hours [3] | Amount of generated hydroxyl radicals % of activity in Ca(OH)2 [4] | Amount of generated radicals [5] | other results
[O]=[Ti]=[O] [0.1% titanium oxide, titanium oxide] | – | – | – | – | – | Amount of generated hydroxyl radicals ([1]; Irradiated with room light for 30 minutes then shaded, this value assumed to be 100%): 100^1) %; Amount of generated hydroxyl radicals [1, 6]: 3.92%
[Ca+2].[OH-].[OH-] [Calcium hydroxide (1%), calcium hydroxide] | 14.27 % of control | 14.27 % of control | 47.49 % of control | 100.00 % of activity in Ca(OH)2 | 6236 | –
[Mg+2].[OH-].[OH-] [Magnesium hydroxide (1%), magnesium hydroxide] | 26.17 % of control | 26.17 % of control | 62.18 % of control | 144.14 % of activity in Ca(OH)2 | 11907 | Amount of generated hydroxyl radicals [1, 6]: 28.33%
[O]=[Mg] [Magnesium oxide (1%), magnesium oxide, reference compound] | 15.07 % of control | 15.07 % of control | 34.15 % of control | 77.84 % of activity in Ca(OH)2 | 3918 | –
[K+].[OH-] [Potassium hydroxide (1%), potassium hydroxide] | 2.88 % of control | – | – | – | – | –
[Na+].[OH-] [Sodium hydroxide (1%), sodium hydroxide] | 3.29 % of control | – | – | – | – | –
O=C([O-])c1ccccc1O.[Na+] [sodium salicylate] | – | – | – | – | – | bands corresponding to spike proteins, electrophoresis without a reducing agent (spike proteins): recovery of bands corresponding to spike proteins was confirmed
[Mg+2].[OH-].[OH-] [specimen No. 7, magnesium hydroxide] | – | – | – | – | – | amounts of generated radicals (rank order) ([5]; comparison of specimens Nos. 7, 8 and 3): specimen No. 7>specimen No. 8>specimen No. 3
